Assay results as given in patent US4015974A, “Amido phosphorothiolates” (priority 1972, dated 1977).
Values after ≈ are worked out from the molar mass of the structure shown. Read-outs that look alike come from different tables or passages of the source.

Key:
Type in all cases: in vivo
[1] = tested on: carmine mite (Tetranychus telavius); test: Lethal effect on carmine mite, leaf dipping (Table 3); conditions: foliar
Experimental: A large number of carmine mite adult were made parasitic on leaves of potted kidney beans at a 2-leaves stage which had elapsed 10 days after sowing. The leaves of kidney bean on which carmine mites had been made parasitic were dipped for 1 minute in each aqueous solution of the present compounds of wettable powder type. Water was given to the leaves not to kill them, and after 48 hours the death and alive were observed microscopically to calculate the mortality. Values of LC50 were obtained from the mortality.

[2] = tested on: common purslane (Portulaca oleracea); test: Pre-emergence application, herbicidal effect on common purslane (Table 1); set-up: key: 0: not damaged; 5: completely killed; conditions: 20 days after application, score 0-5
Summary of the method: (§1)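 Pre-emergence soil treatment: seeds sown in pots of about 10 cm and covered with soil, then compounds applied as wettable powder diluted in water. Plants grown in a greenhouse; damage scored 20 days after application from 0 (not damaged) to 5 (completely killed).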

radish = test: Pre-emergence application, herbicidal effect on radish (Table 1); set-up: key: 0: not damaged; 5: completely killed; conditions: 20 days after application, score 0-5
Summary of the method: as §1

[3] = tested on: common lambsquarter (Chenopodium album); test: Pre-emergence application, herbicidal effect on common lambsquarter (Table 1); set-up: key: 0: not damaged; 5: completely killed; conditions: 20 days after application, score 0-5
Summary of the method: as §1

[4] = tested on: redroot pigweed (Amaranthus retroflexus); test: Pre-emergence application, herbicidal effect on redroot pigweed (Table 1); set-up: key: 0: not damaged; 5: completely killed; conditions: 20 days after application, score 0-5
Summary of the method: as §1

nematode = test: Effect on nematode (Table 7); set-up: tested at 500 ppm; conditions: 500 p.p.m., 24 hours
Experimental: 0.5 ml. of a nematode-containing aqueous solution separated from food according to Baermann's method was placed in a test tube with ground stopper containing 0.5 ml. of an aqueous dilute solution of each emulsifiable concentrates of the present compounds. The concentration of the active ingredient in the mixture was adjusted to 500 p.p.m. After 24 hours, the death and alive were observed microscopically to calculate the mortality.

[5] = tested on: barnyard grass (Echinochloa crus-galli); test: Water application, herbicidal effect on barnyard grass (Table 2); set-up: key: 0: not damaged; 5: completely killed; conditions: 25 days, score 0-5
Summary of the method: (§2)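 Flooded paddy-soil pots with 3-leaf-stage transplanted rice and sown barnyard grass; wettable-powder compounds applied to soil under water. Herbicidal effect and rice phytotoxicity, also on spontaneously germinated broad-leaved weeds, scored 0–5 at 25 days after application.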

rice = test: Water application, phytotoxicity on rice (Table 2); set-up: key: 0: no effect; 1: very slightly affected; 2: slightly affected; 3: moderately affected; 4: considerably affected; 5: completely killed; conditions: 25 days, score 0-5
Summary of the method: as §2

[6] = tested on: large crabgrass (Digitaria sanguinalis); test: Pre-emergence application, herbicidal effect on large crabgrass (Table 1); set-up: key: 0: not damaged; 5: completely killed; conditions: 20 days after application, score 0-5
Summary of the method: as §1

[7] = tested on: broad-leaved weeds, e.g., monochoria, false pimpernel and toothcup; test: Water application, herbicidal effect on broad-leaved weeds (Table 2); set-up: key: 0: not damaged; 5: completely killed; conditions: 25 days, score 0-5
Summary of the method: as §2

[8] = tested on: barnyard grass (Echinochloa crus-galli); test: Pre-emergence application, herbicidal effect on barnyard grass (Table 1); set-up: key: 0: not damaged; 5: completely killed; conditions: 20 days after application, score 0-5
Summary of the method: as §1

[9] = tested on: rice stem borer (Chilo suppressalis); test: Lethal effect on rice stem borer (Table 6); conditions: 50 % emulsifiable concentrate, 1000 fold dilute solution, 4 days after application
Source text: Eggs just before hatch of the rice stem borer were applied in a ratio of 100/pot near the root of rice plants grown up into the tillering stage in an […] Wagner's pot. After eggs were hatched and the larvae entered into stems of rice plants, an 1000 fold dilute solution of each 50 % emulsifiable concentrates of the present compounds was applied by means of a turn table.

[10] = tested on: broad-leaved weeds, e.g., monochoria, false pimpernel and toothcup; test: Water application, herbicidal effect on broad-leaved weeds (Table 2); set-up: key: 0: no effect; 1: very slightly affected; 2: slightly affected; 3: moderately affected; 4: considerably affected; 5: completely killed; conditions: 10 g/a, 25 days, score 0-5
Source text: Wagner pots of 14 cm. in diameter, which had been packed with 1.5 kg. of paddy field soil, were brought into the state of paddy fields. To the pots were transplanted rice seedlings at the 3-leave stage. Further, seeds of barnyard grass (Echinochloa crus-galli) were sowed in the pots and required amounts of test compounds were applied to the soil under water lodged condition. 25 days after application, the degrees of herbicidal activity and phytotoxity were investigated on above-mentioned plants which had been transplanted and sowed, and on broad-leaved weeds, e.g., monochoria (Monochoria viaginalis Presl.), false pimpernel (Linderna pyxidaria) and toothcup (Rotala indica Koehue), which had been spontaneously germinated. The test compounds were used in the form of wettable powder. The herbicidal effects and the phytotoxity were evaluated as follows by the numerals ranging from 0 to 5.

Structure (SMILES) | Herbicidal effect, common purslane ([2]; 10 g./a.) | Herbicidal effect, common purslane ([2]; 20 g./a.) | Herbicidal effect, common purslane ([2]; 40 g./a.) | Herbicidal effect, radish (radish; 10 g./a.) | Herbicidal effect, radish (radish; 20 g./a.) | Herbicidal effect, radish (radish; 40 g./a.) | Herbicidal effect, common lambsquarter ([3]; 10 g./a.) | Herbicidal effect, common lambsquarter ([3]; 20 g./a.) | Herbicidal effect, common lambsquarter ([3]; 40 g./a.) | Herbicidal effect, redroot pigweed ([4]; 10 g./a.) | Herbicidal effect, redroot pigweed ([4]; 20 g./a.) | Herbicidal effect, redroot pigweed ([4]; 40 g./a.) | Herbicidal effects, barnyard grass ([5]; 10 g/a) | Herbicidal effects, barnyard grass ([5]; 20 g/a) | Herbicidal effects, barnyard grass ([5]; 40 g/a) | Phytotoxicity on rice (rice; 10 g/a) | Phytotoxicity on rice (rice; 20 g/a) | Phytotoxicity on rice (rice; 40 g/a) | Herbicidal effect, large crabgrass ([6]; 10 g./a.) | Herbicidal effect, large crabgrass ([6]; 20 g./a.) | also measured
CC(COc1ccc(C(C)(C)C)cc1)OCC(C)OS(=O)OCCl (stereo not shown) [Smite, reference compound] | – | – | – | – | – | – | – | – | – | – | – | – | – | – | – | – | – | – | – | – | LC50 ([1]; leaves dipped 1 minute, wettable powder, 48 hours, read-out: LC50): 102 µg/mL (≈ 269 µM)
CCOP(=O)(SCC(=O)N1CCCCC1C)SCc1ccccc1 (stereo not shown) [Compound 11] | 4 | 4 | 5 | 0 | 0 | 0 | 4 | 4 | 5 | 4 | 5 | 5 | 5 | 5 | 5 | 0 | 0 | 0 | 4 | 5 | Mortality (nematode): 100%; LC50 ([1]; 48 h): 50 µg/mL (≈ 129 µM); Herbicidal effect, large crabgrass ([6]; 40 g./a.): 5; Herbicidal effects, broad-leaved weeds ([7]; 10 g/a): 5; Herbicidal effects, broad-leaved weeds ([7]; 20 g/a): 5; Herbicidal effects, broad-leaved weeds ([7]; 40 g/a): 5; Herbicidal effect, barnyard grass ([8]; 10 g./a.): 4; Herbicidal effect, barnyard grass ([8]; 20 g./a.): 5; Herbicidal effect, barnyard grass ([8]; 40 g./a.): 5
CCCSP(=O)(OCC)SCC(=O)N1CCCCC1CC (stereo not shown) [Compound 14] | 5 | 5 | 5 | 0 | 0 | 0 | 4 | 5 | 5 | 4 | 5 | 5 | 5 | 5 | 5 | 0 | 0 | 0 | 5 | 5 | Mortality (nematode): 100%; LC50 ([1]; 48 h): 23.1 µg/mL (≈ 65.3 µM); Herbicidal effect, large crabgrass ([6]; 40 g./a.): 5; Herbicidal effects, broad-leaved weeds ([7]; 10 g/a): 5; Herbicidal effects, broad-leaved weeds ([7]; 20 g/a): 5; Herbicidal effects, broad-leaved weeds ([7]; 40 g/a): 5; Herbicidal effect, barnyard grass ([8]; 10 g./a.): 5; Herbicidal effect, barnyard grass ([8]; 20 g./a.): 5; Herbicidal effect, barnyard grass ([8]; 40 g./a.): 5
CCCCSP(=O)(OC)SCC(=O)N1CCCCC1C (stereo not shown) [Compound 31] | – | – | – | – | – | – | – | – | – | – | – | – | – | – | – | – | – | – | – | – | Mortality [9]: 69.5%
CCOP(=O)(SCC(=O)N1CCCCC1C)SCC(C)C (stereo not shown) [Compound 6] | – | – | – | – | – | – | – | – | – | – | – | – | – | – | – | – | – | – | – | – | Mortality [9]: 75.0%
CCOP(=O)(SCCC(C)C)SCC(=O)N1CCCCC1C (stereo not shown) [Compound 7] | 5 | 5 | 5 | 0 | 0 | 0 | 5 | 5 | 5 | 4 | 5 | 5 | 5 | 5 | 5 | 0 | 0 | 0 | 5 | 5 | Mortality (nematode): 100%; LC50 ([1]; 48 h): 18.5 µg/mL (≈ 50.3 µM); Herbicidal effect, large crabgrass ([6]; 40 g./a.): 5; Herbicidal effects, broad-leaved weeds ([7]; 10 g/a): 5; Herbicidal effects, broad-leaved weeds ([7]; 20 g/a): 5; Herbicidal effects, broad-leaved weeds ([7]; 40 g/a): 5; Herbicidal effect, barnyard grass ([8]; 10 g./a.): 5; Herbicidal effect, barnyard grass ([8]; 20 g./a.): 5; Herbicidal effect, barnyard grass ([8]; 40 g./a.): 5
CCCSP(=O)(OC)SCC(=O)N1CCCCC1C (stereo not shown) [Compound 30] | – | – | – | – | – | – | – | – | – | – | – | – | – | – | – | – | – | – | – | – | LC50 ([1]; 48 h): 22.8 µg/mL (≈ 70.1 µM)
C=C(C)CSP(=O)(OCC)SCC(=O)N1CCCCC1C (stereo not shown) [Compound 35] | – | – | – | – | – | – | – | – | – | – | – | – | – | – | – | – | – | – | – | – | Mortality [9]: 95.0%
CCCCCCCCSP(=O)(OCC)SCC(=O)N1CCCCC1C (stereo not shown) [Compound 8] | 4 | 4 | 4 | 0 | 0 | 0 | 3 | 4 | 4 | 3 | 4 | 4 | 5 | 5 | 5 | 0 | 0 | 0 | 4 | 4 | Herbicidal effects, broad-leaved weeds [10]: 4; Herbicidal effect, large crabgrass ([6]; 40 g./a.): 5; Herbicidal effects, broad-leaved weeds ([7]; 20 g/a): 5; Herbicidal effects, broad-leaved weeds ([7]; 40 g/a): 5; Herbicidal effect, barnyard grass ([8]; 10 g./a.): 4; Herbicidal effect, barnyard grass ([8]; 20 g./a.): 4; Herbicidal effect, barnyard grass ([8]; 40 g./a.): 5
CCOP(=O)(SCC(=O)N1CCCCC1C)SC1CCCCC1 (stereo not shown) [Compound 10] | 3 | 4 | 4 | 0 | 0 | 0 | 3 | 4 | 4 | 3 | 4 | 4 | 5 | 5 | 5 | 0 | 0 | 0 | 4 | 4 | Mortality (nematode): 100%; Herbicidal effects, broad-leaved weeds [10]: 4; Herbicidal effect, large crabgrass ([6]; 40 g./a.): 5; Herbicidal effects, broad-leaved weeds ([7]; 20 g/a): 5; Herbicidal effects, broad-leaved weeds ([7]; 40 g/a): 5; Herbicidal effect, barnyard grass ([8]; 10 g./a.): 4; Herbicidal effect, barnyard grass ([8]; 20 g./a.): 4; Herbicidal effect, barnyard grass ([8]; 40 g./a.): 5
CCOC(=O)CC(SP(=S)(OC)OC)C(=O)OCC (stereo not shown) [Malathion, reference compound] | – | – | – | – | – | – | – | – | – | – | – | – | – | – | – | – | – | – | – | – | Mortality [9]: 41.3%
